Measured values reported in patent publication US20260263624A1, “COMBINATION OF ANTIBODY-DRUG CONJUGATE AND CANCER THERAPY, AND USE THEREOF” (GENEQUANTUM HEALTHCARE (SUZHOU) CO., LTD., priority 2023, published 2026).

System: human breast cancer HER2 IHC 3+ PDX model
Assay: In vivo efficacy of GQ01 with TKIs in human breast cancer PDX model (Example 1)
Set-up: species or system NOD SCID mice
Settings: GQ01 5 mg/kg Q3W×2, neratinib 20 mg/kg QD×2W+QD×2W, combination 5 + 20 mg/kg; for TGI (%): day 77; for Tumor volume (mm^3), Mean ± SEM: end day (day 77)
Protocol: I. The tumor tissues of PDX model were extracted from the tumor-bearing mice and then transferred to culture medium, cut into small fragments, and inoculated subcutaneously at the right flank of SPF female NOD SCID mice aged 6~8 weeks.
II. The tumor diameter was measured with a caliper and the tumor volume was calculated according to the formula V=0.5 a×b^2 (wherein a is the long diameter of the tumor and b is the short diameter of the tumor). […] The tumor volume of mice in each group was measured twice a week.

## CCOc1cc2ncc(C#N)c(Nc3ccc(OCc4ccccn4)c(Cl)c3)c2cc1NC(=O)/C=C/CN(C)C [Neratinib, neratinib]
  TGI (%): 61.80%
  Tumor volume (mm^3), Mean ± SEM: 724 ± 114 mm^3
Listed as neratinib
  TGI (%): 61.80%
  Tumor volume (mm^3), Mean ± SEM: 724 mm^3
